The term IC50 denotes the concentration at which inhibition is half-maximal. Low readings indicate higher potency, high ones lower potency.

SMILES strings stand for the structures.

The test system of assay [1] is CCRF-CEM. Kind of assay: Tested in vitro for the inhibition of cell growth of human T lymphoblastoid CCRF-CEM cell line (ATCC CCL 119); na = not active (inhibition of cell growth at 10 uM was lower than 20%). Type of assay: functional, cell-based.
Assay [2] concerns HeLa. Kind of assay: Tested in vitro for the inhibition of cell growth of human cervix carcinoma HeLa S3 cell (ATCC CCL 2.2); na = not active (inhibition of cell growth at 10 uM was lower than 20%). Type of assay: functional, cell-based.
The test system of assay [3] is L1210. Nature of the assay: Tested in vitro for the inhibition of cell growth of mouse leukemia L1210 cell (ATCC CCL 219); na = not active (inhibition of cell growth at 10 uM was lower than 20%). Type of assay: functional, cell-based.
Assay [4] has as its system L929. Nature of the assay: Tested in vitro for the inhibition of cell growth of murine L929 cells (ATCC CCL 1); na = not active (inhibition of cell growth at 10 uM was lower than 20%). In kind it is functional, cell-based, Mus musculus.
In assay [5] the test system is CCRF-CEM. Kind of assay: Tested in vitro for the inhibition of cell growth of human T lymphoblastoid CCRF-CEM cell line (ATCC CCL 119). In kind it is functional, cell-based.
In assay [6] the test system is HeLa. Nature of the assay: Tested in vitro for the inhibition of cell growth of human cervix carcinoma HeLa S3 cell (ATCC CCL 2.2). Type of assay: functional, cell-based.
Assay [7] has as its system L1210. Nature of the assay: Tested in vitro for the inhibition of cell growth of mouse leukemia L1210 cell (ATCC CCL 219). Type of assay: functional, cell-based.
The subject of assay [8] is L929. Nature of the assay: Tested in vitro for the inhibition of cell growth of murine L929 cells (ATCC CCL 1). Type of assay: functional, cell-based. The note with it: Mus musculus.

For `c1ccc(Cn2cnc3c(CCc4ncnc5c4ncn5Cc4ccccc4)ncnc32)cc1`, the IC50 entry in assay [1], in assay [2], in assay [3] and in assay [4] was “Not Active” in each case.
As for `C(C#Cc1ncnc2c1ncn2C1CCCCO1)#Cc1ncnc2c1ncn2C1CCCCO1` (stereo not given), the IC50 in assay [5] worked out at 0.58 µM; in assay [6] it was 13.3 µM; in assay [7], 0.7 µM; in assay [8] it was 1 µM.
The matching figures for `CCCCCn1cnc2c(C#Cc3ncnc4c3ncn4CCCCC)ncnc21`: 0.36 µM, 15 µM, 1.5 µM and 3 µM.
The matching figures for `C(#Cc1ncnc2c1ncn2C1CCCCO1)c1ncnc2c1ncn2Cc1ccccc1` (stereo not given): 0.32 µM, 6 µM, 0.9 µM and 1.9 µM.
For the compound `O=c1[nH]c(=O)n([C@H]2C[C@H](O)[C@@H](CO)O2)cc1F` [FLOXURIDINE], the 50% inhibitory concentration (IC50) in assay [5] was 0.5 µM; in assay [6] it was more than 25 µM; in assay [7], less than 0.02 µM; in assay [8], more than 25 µM.
`C(C#Cc1ncnc2c1ncn2Cc1ccccc1)#Cc1ncnc2c1ncn2Cc1ccccc1`: the half-maximal inhibitory concentration (IC50) in assay [5] was 0.43 µM; in assay [2] it was “Not Active”; in assay [7], 0.37 µM; in assay [8], 6.3 µM.
In the case of `C(=C\c1ncnc2c1ncn2Cc1ccccc1)/c1ncnc2c1ncn2Cc1ccccc1`, the half-inhibitory concentration (IC50) entry in assay [1], in assay [2], in assay [3] and in assay [4] was “Not Active” throughout.
With `C(#Cc1ncnc2c1ncn2Cc1ccccc1)c1ncnc2c1ncn2Cc1ccccc1`, the half-maximal inhibitory concentration (IC50) in assay [5] was 0.9 µM; in assay [2] it was “Not Active”; in assay [7], 1.8 µM; in assay [8], 5.3 µM.
As for `CCCCCn1cnc2c(C#CC#Cc3ncnc4c3ncn4CCCCC)ncnc21`, the concentration for half-maximal inhibition (IC50) in assay [5] amounted to 0.37 µM; in assay [6], 15 µM; in assay [7] it was 0.5 µM; in assay [8], 1.3 µM.
Regarding `C(=Cc1ncnc2c1ncn2Cc1ccccc1)c1ncnc2c1ncn2Cc1ccccc1`, the concentration for half-maximal inhibition (IC50) entry in assay [1], in assay [2], in assay [3] and in assay [4] was “Not Active” each time.

For the origin of these results see ChEMBL document CHEMBL1135266, “Covalent analogues of DNA base-pairs and triplets. Part 2: synthesis and cytostatic activity of bis(purin-6-yl)acetylenes,-diacetylenes and related compounds” (Bioorg Med Chem Lett, 2002).
